Measurements: US20160280651A1, “COMPOUNDS THAT INDUCE ABA RESPONSES” (THE REGENTS OF THE UNIVERSITY OF CALIFORNIA, priority 2013, published 2016)
“Also recorded” adds a separate entry of the source.

Experiments:
soybean plants = experiment: Soybean drought stress assay; format: in vivo; conditions: 50 μM, aerosol every 3 days
Description: FIG. 8A-FIG. 8B. Quinabactin confers drought stress tolerance to wild-type plants. (A) Effect of quinabactin on Arabidopsis drought tolerance. Two-week-old plants were subjected to drought stress by withholding water and were photographed after 12 days. During the drought period, plants were treated every 3 days with 25 μM compound. Plants were re-hydrated after 2 weeks drought treatment; the number of surviving plants (out of total number tested) for each treatment is shown next to each image. (B) Effects of quinabactin on soybean. Two-week-old plants were subjected to drought stress by withholding water and photographed after 8 days drought treatment. […]
Physiological assays were performed on Arabidopsis plants grown at 22±2° C. and relative humidity (RH) 45±10% under a 16/8-h light/dark cycle. […] 12 4-week old plants were sprayed per compound or control analyzed. After overnight pre-treatment with compounds, the aerial portions were detached from roots, and their fresh weight measured at 20 min intervals over a 2 hour time period. […] The leaf impressions were analyzed by light microscopy and stomatal apertures were determined from the pore widths using ImageJ 1.43v software (National Institutes of Health, USA). […] Pots were covered in Parafilm to so that the water loss measured was transpiration mediated. […]

ABA-responsive genes = experiment: Quantitative RT-PCR of ABA-responsive genes in Arabidopsis; format: in vivo; conditions: for Induction of MAPKKK18, RD29A and RD29B mRNAs: Col and Ler ecotypes and pyr1, pyl1, pyl2, pyl3, pyl4 single mutants; for Expression of ABF3, GBF3, NCED3 and RD29A: Col wild-type plants; for Expression of RD29B and MAPKKK18 mRNA: wild-type plants
Description: FIG. 9A-FIG. 9D. LC66C6 induces numerous ABA-responsive genes. […] Ten-day old seedlings were treated with carrier solvent (DMSO) or either 25 μM ABA, pyrabactin or LC66C6 for 8 hours. Total RNA was then prepared labeled and hybridized to ATH1 microarrays. Data plotted are log 2 transformed average expression values for ˜13K probes that were detectable across all experiments. Data shown are averages determined from triplicate biological replicates. (C) and (D) show the expression of a reporter gene in different plant tissues after treatment with vehicle (DMSO), pyrabactin, LC66C6, or (+)-ABA.
FIG. 10. ABA-responsive gene expression in PYR/PYL single mutants. The response of the ABA-responsive MAPKKK18, RD29A, and RD29B mRNAs to LC66C6, ABA and pyrabactin were characterized in the Col and Ler ecotypes and the pyr1, pyl1, ply2, pyl3 and pyl4 single mutant genotypes.
FIG. 11. LC66C6 induces ABA-responsive gene expression in wild-type plants, abi1-1 and PYR/PYL quadruple mutants.
Total RNA was isolated using Plant RNA purification reagent (Invitrogen, USA) according to the manufacturer's instructions. cDNA was synthesized from 1 μg of total RNA using the QantiTec reverse transcription kit (Qiagen, USA). Real-time PCR using Maxima® SYBR Green/Fluorescein qPCR Master Mix (Fermentas) was performed with the iQ5 real-time PCR detection system (Bio-Rad, Hercules, Calif.). The relative amounts of target mRNAs were determined using the relative standard curve method and were normalized by relative amount of internal control mRNA. Biological triplicate experiments were performed.

[1] = test system: broccoli, radish, alfalfa, soybean, barely, wheat, sorghum and maize seeds; experiment: Germination inhibition in diverse species; format: in vivo; conditions: barley
Excerpt: (§1) FIG. 13A-FIG. 13E. LC66C6 modulates ABA responses in diverse species. Germination inhibition (A) and transpirational water loss in detached leaves 2-hours after detachment (B) in response to compounds shown. The expression of ABA-responsive marker genes in Soybean (C), Barley (D) and Maize (E) after application of chemicals. D, P, L and A indicate DMSO, pyrabactin, LC66C6 and (+)-ABA, respectively.

[2] = test system: detached leaves of crop species; experiment: Water loss analyses in diverse species; format: in vivo, soybean, barley, maize and other species; conditions: over a period of 2 hours
Description: as §1
For water loss analyses using soybean barley and maize, 100 μM chemical solution containing 0.05% Tween-20 was sprayed on to the aerial parts of the plants. The soybean, barley and maize plants used were approximately 4-, 2- and 2-weeks old respectively. Compounds were applied 16 hours before water loss assays were conduction. To measure water loss entire shoots were detached and their fresh weight monitored.

aba2 mutant plants = experiment: Rescue of growth defects of ABA-deficient mutant aba2; format: in vivo, Arabidopsis; conditions: 25 μM sprayed two times a day for two weeks; versus DMSO
Description: FIG. 16A-FIG. 16B. Application of LC66C6 can rescue growth defects observed in the ABA-deficient mutant aba2. Chemical solution (25 μM) was sprayed on 14-day-plants two times per day for 2 weeks. The image (A) and fresh weight (B) were obtained from 4-week plants.
In this example, 14-day old wild-type and aba2 mutant plants were sprayed with a solution containing 25 μM of agonist two times a day for two weeks. Images and fresh weight were obtained from 4 week old plants.

| Compound | Drought stress tolerance (soybean plants) | Induction of MAPKKK18, RD29A and RD29B mRNAs (ABA-responsive genes) | Expression of ABF3, GBF3, NCED3 and RD29A (ABA-responsive genes) | Expression of RD29B and MAPKKK18 mRNA (ABA-responsive genes) | Inhibition of germination in diverse species [1] | Transpirational water loss in detached leaves of diverse species [2] | Size of aba2 mutant plants (aba2 mutant plants) |
| --- | --- | --- | --- | --- | --- | --- | --- |
| CCCN1C(=O)CCc2cc(NS(=O)(=O)Cc3ccc(C)cc3)ccc21 [LC66C6] | confers drought stress tolerance similar to that conferred by treatment with (+)-ABA | induced | induced expression of ABF3, GBF3, NCED3, and RD29A in a dose dependent manner | induced the expression of RD29B and MAPKKK18 mRNA in a dose dependent manner in wild-type plants | inhibits germination; also recorded: greater than pyrabactin | reduces transpirational water loss | significantly increased the size of the mutant plants |
| O=S(=O)(NCc1ccccn1)c1ccc(Br)c2ccccc12 [pyrabactin, reference compound] |  | did not significantly induce expression | did not induce significant expression | did not induce gene expression in wild-type plants |  |  |  |
